According to patent publication US20230120564A1, “PYRIDO[3,4-D]PYRIMIDINE DERIVATIVE AND THERAPEUTIC PHARMACEUTIC COMPOSITION COMPRISING SAME” (KOREA INSTITUTE OF SCIENCE AND TECHNOLOGY, priority 2020, published 2023):

Experiments:
Assay in all cases: full kinase panel biochemical assay
ACK1 = ACK1 (Homo sapiens, UniProt Q07912); settings: single concentration of 1 μM; read-out: percent inhibition of ACK1
Protocol: (§1) In order to measure the protein kinase inhibitory activity (% inhibition) of the compound of the present invention, biochemical assay was performed in the full kinase panel. As a test compound, Compound No. 4 was used. The percent inhibition of each kinase when treated with the test compound at a single concentration of 1 μM was measured, and the residual enzyme activity values (%) of the kinases were calculated. Kinases whose calculated residual enzyme activity values (%) was 30% or less (i.e., kinases inhibited by 70% or more) are as follows: ABL1, ABL2/ARG, ACK1, ARAF, BLK, BMX/ETK, BRAF, BRK, BTK, c-Kit, c-Src, CSK, DDR1, DDR2, EPHA1, EPHA2, EPHA3, EPHA4, EPHA5, EPHA6, EPHA7, EPHA8, EPHB1, EPHB2, EPHB3, EPHB4, ERBB2/HER2, ERBB4/HER4, FGFR1, FGFR2, FGFR3, FGR, FLT1/VEGFR1, FLT4/VEGFR3, FMS, FRK/PTK5, FYN, GCK/MAP4K2, HCK, HGK/MAP4K4, JAK1, JAK2, KDR/VEGFR2, KHS/MAP4K5, LCK, LYN, LYN B, MEKK1, MLK4, MYLK3, NEK5, P38a/MAPK14, P38b/MAPK11, PDGFRa, PDGFRb, PEAK1, RET, RIPK2, RIPK4, SIK2, SRPK1, TAOK3/JIK, TLK1, TNK1, TXK, TYK2, YES/YES1, YSK4/MAP3K19, and ZAK/MLTK.

BLK = BLK (Homo sapiens, UniProt P51451); settings: single concentration of 1 μM; read-out: percent inhibition of BLK
Protocol: as §1

EPHA4 = EPHA4 (Homo sapiens, UniProt P54764); settings: single concentration of 1 μM; read-out: percent inhibition of EPHA4
Protocol: as §1

EPHB4 = EPHB4 (Homo sapiens, UniProt P54760); settings: single concentration of 1 μM; read-out: percent inhibition of EPHB4
Sequence of EPHB4 (P54760 16-987): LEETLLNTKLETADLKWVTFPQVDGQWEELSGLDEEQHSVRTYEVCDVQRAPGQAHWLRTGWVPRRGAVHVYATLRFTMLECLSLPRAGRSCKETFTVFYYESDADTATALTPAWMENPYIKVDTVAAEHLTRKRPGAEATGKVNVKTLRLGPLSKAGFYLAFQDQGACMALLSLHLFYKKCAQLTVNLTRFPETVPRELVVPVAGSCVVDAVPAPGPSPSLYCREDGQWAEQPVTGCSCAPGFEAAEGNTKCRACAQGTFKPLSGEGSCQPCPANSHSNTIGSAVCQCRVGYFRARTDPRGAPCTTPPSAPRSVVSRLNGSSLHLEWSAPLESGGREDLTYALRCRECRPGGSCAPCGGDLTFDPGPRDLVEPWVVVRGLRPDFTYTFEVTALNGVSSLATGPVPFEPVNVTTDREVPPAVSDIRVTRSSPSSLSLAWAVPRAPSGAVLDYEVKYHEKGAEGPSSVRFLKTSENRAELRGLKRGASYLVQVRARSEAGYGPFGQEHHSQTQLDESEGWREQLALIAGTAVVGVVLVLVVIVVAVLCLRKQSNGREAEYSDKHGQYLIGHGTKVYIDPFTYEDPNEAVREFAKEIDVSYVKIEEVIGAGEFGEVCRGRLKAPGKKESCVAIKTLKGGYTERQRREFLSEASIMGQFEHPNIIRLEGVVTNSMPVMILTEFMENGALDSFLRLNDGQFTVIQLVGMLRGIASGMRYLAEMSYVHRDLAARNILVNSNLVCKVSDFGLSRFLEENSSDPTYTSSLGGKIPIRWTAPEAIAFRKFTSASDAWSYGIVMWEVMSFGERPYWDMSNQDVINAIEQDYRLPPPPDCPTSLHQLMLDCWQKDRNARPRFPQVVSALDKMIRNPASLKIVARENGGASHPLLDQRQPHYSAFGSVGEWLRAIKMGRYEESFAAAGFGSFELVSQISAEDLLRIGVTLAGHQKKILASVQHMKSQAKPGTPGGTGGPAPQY
Protocol: as §1

ERBB2/HER2 = ERBB2/HER2 (Homo sapiens, UniProt P04626); settings: single concentration of 1 μM; read-out: percent inhibition of ERBB2/HER2
Sequence of ERBB2/HER2 (P04626 23-1255): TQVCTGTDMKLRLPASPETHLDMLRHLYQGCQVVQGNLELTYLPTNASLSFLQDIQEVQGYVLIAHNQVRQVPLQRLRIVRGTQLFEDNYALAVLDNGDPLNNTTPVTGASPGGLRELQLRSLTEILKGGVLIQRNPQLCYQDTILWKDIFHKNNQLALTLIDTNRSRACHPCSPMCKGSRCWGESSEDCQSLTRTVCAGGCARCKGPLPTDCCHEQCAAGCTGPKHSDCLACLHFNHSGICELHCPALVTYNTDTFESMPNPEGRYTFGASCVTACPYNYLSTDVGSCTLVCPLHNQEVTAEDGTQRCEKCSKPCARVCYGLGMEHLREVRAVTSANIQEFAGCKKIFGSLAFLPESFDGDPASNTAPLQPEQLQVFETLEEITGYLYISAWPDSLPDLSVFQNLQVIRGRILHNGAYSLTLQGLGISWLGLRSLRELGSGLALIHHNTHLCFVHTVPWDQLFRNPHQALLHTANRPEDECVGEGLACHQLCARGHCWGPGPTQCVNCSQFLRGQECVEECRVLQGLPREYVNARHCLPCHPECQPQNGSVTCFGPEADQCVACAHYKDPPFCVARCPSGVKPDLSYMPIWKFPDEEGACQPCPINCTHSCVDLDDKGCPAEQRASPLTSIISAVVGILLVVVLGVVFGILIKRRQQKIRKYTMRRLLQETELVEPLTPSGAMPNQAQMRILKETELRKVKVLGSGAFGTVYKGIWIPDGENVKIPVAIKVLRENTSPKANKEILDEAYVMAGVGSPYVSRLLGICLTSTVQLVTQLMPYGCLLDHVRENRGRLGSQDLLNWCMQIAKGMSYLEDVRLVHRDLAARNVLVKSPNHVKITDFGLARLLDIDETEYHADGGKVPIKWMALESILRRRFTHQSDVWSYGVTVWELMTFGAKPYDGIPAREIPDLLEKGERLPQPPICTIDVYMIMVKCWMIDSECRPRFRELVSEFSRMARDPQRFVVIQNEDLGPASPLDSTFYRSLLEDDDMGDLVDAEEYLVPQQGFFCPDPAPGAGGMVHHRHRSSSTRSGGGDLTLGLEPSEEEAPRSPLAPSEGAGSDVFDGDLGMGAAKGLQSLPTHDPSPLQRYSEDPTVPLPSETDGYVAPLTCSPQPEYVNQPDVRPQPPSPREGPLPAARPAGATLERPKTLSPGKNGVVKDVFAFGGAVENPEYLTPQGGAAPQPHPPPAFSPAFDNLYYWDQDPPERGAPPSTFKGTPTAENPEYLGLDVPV
Protocol: as §1

ERBB4/HER4 = ERBB4/HER4 (Homo sapiens, UniProt Q15303); settings: single concentration of 1 μM; read-out: percent inhibition of ERBB4/HER4
Protocol: as §1

FGFR2 = FGFR2 (Homo sapiens, UniProt P21802); settings: single concentration of 1 μM; read-out: percent inhibition of FGFR2
Protocol: as §1

FGR = FGR (Homo sapiens, UniProt P09769); settings: single concentration of 1 μM; read-out: percent inhibition of FGR
Protocol: as §1

FYN = FYN (Homo sapiens, UniProt P06241); settings: single concentration of 1 μM; read-out: percent inhibition of FYN
Sequence of FYN (P06241 whole entry): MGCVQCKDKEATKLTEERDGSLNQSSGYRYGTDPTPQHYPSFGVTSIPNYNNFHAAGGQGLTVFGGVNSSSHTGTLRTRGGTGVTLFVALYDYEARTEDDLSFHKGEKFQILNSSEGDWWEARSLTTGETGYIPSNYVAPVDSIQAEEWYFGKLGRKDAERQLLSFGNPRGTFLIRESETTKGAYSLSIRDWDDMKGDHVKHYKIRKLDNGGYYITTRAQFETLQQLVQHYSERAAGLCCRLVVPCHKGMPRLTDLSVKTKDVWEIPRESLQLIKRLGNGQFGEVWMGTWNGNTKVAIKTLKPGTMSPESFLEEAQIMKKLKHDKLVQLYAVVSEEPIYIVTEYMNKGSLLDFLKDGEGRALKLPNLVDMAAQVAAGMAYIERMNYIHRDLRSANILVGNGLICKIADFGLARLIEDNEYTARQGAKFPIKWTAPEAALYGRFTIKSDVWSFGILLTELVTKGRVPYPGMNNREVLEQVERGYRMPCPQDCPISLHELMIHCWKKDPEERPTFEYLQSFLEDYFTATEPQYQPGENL
Protocol: as §1

GCK/MAP4K2 = GCK/MAP4K2 (Homo sapiens, UniProt Q12851); settings: single concentration of 1 μM; read-out: percent inhibition of GCK/MAP4K2
Protocol: as §1

KDR/VEGFR2 = KDR/VEGFR2 (Homo sapiens, UniProt P35968); settings: single concentration of 1 μM; read-out: percent inhibition of KDR/VEGFR2
Protocol: as §1

LCK = LCK (Homo sapiens, UniProt P06239); settings: single concentration of 1 μM; read-out: percent inhibition of LCK
Sequence of LCK (P06239 whole entry): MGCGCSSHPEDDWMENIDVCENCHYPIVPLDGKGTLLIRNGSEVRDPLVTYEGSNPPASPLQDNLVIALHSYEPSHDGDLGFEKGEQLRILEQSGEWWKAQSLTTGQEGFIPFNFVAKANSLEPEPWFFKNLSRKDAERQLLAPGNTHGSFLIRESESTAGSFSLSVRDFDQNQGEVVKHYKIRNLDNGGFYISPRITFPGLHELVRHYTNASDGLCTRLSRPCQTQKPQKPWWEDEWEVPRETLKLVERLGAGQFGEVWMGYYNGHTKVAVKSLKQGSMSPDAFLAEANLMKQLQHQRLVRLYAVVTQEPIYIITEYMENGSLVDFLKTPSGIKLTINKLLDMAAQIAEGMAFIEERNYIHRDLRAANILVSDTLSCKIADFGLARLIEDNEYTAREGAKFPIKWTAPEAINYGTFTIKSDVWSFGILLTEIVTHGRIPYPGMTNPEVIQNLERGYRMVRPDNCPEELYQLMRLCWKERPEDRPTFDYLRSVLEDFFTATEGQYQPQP
Protocol: as §1

MYLK3 = MYLK3 (Homo sapiens, UniProt Q32MK0); settings: single concentration of 1 μM; read-out: percent inhibition of MYLK3
Protocol: as §1

P38a/MAPK14 = P38a/MAPK14 (Homo sapiens, UniProt Q16539); settings: single concentration of 1 μM; read-out: percent inhibition of P38a/MAPK14
Protocol: as §1

PDGFRb = PDGFRb (Homo sapiens, UniProt P09619); settings: single concentration of 1 μM; read-out: percent inhibition of PDGFRb
Sequence of PDGFRb (P09619 33-1106): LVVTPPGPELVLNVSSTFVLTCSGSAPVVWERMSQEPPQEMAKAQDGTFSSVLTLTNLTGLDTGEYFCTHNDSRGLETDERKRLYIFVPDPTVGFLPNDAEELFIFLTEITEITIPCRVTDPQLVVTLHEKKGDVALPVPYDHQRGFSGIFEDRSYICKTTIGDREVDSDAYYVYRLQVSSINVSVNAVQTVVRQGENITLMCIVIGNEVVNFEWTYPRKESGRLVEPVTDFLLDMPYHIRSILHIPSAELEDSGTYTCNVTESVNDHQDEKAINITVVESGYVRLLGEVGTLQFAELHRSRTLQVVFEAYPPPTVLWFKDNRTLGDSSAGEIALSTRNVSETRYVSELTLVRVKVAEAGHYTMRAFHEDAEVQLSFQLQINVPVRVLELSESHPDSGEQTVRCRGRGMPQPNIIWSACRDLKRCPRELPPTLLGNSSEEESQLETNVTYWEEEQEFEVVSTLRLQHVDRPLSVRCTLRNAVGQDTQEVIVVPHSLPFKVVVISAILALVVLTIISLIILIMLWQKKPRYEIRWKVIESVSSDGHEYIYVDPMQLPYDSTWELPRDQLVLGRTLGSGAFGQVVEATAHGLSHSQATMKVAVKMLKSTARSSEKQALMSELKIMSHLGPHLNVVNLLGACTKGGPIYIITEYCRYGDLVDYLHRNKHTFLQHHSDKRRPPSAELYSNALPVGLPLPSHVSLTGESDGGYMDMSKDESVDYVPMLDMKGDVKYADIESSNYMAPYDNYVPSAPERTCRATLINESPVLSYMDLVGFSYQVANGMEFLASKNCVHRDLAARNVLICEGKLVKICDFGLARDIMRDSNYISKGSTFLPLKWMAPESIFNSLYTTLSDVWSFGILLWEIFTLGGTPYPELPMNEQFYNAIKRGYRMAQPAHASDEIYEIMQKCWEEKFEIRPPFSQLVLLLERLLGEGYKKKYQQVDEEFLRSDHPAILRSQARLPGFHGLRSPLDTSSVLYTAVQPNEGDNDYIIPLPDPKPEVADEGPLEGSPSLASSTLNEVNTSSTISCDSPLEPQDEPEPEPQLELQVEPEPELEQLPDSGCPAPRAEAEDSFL
Protocol: as §1

RET = RET (Homo sapiens, UniProt P07949); settings: single concentration of 1 μM; read-out: percent inhibition of RET
Protocol: as §1

RIPK2 = RIPK2 (Homo sapiens, UniProt O43353); settings: single concentration of 1 μM; read-out: percent inhibition of RIPK2
Protocol: as §1

TAOK3/JIK = TAOK3/JIK (Homo sapiens, UniProt Q9H2K8); settings: single concentration of 1 μM; read-out: percent inhibition of TAOK3/JIK
Protocol: as §1

TLK1 = TLK1 (Homo sapiens, UniProt Q9UKI8); settings: single concentration of 1 μM; read-out: percent inhibition of TLK1
Sequence of TLK1 (Q9UKI8 whole entry): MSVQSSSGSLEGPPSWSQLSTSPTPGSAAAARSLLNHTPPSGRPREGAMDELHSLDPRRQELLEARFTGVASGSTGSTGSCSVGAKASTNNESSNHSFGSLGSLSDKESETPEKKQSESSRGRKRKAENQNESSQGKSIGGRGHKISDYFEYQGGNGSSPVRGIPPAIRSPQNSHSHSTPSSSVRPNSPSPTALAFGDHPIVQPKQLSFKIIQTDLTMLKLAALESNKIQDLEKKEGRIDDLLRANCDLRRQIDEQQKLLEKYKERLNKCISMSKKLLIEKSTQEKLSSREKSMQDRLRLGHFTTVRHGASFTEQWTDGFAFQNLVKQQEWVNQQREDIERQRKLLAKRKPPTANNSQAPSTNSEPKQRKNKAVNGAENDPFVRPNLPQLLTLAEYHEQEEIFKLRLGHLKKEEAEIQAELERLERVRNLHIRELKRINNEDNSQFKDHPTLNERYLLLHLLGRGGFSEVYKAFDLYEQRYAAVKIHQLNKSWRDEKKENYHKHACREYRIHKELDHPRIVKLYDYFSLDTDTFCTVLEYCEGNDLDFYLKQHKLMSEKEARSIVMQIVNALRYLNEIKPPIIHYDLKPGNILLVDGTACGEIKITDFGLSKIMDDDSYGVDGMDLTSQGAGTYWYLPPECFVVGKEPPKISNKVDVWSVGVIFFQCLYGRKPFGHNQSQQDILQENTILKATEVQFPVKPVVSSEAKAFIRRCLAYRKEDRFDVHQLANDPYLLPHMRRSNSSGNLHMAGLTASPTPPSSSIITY
Protocol: as §1

YES/YES1 = YES/YES1 (Homo sapiens, UniProt P07947); settings: single concentration of 1 μM; read-out: percent inhibition of YES/YES1
Protocol: as §1

YSK4/MAP3K19 = YSK4/MAP3K19 (Homo sapiens, UniProt Q56UN5); settings: single concentration of 1 μM; read-out: percent inhibition of YSK4/MAP3K19
Protocol: as §1

ZAK/MLTK = ZAK/MLTK (Homo sapiens, UniProt Q9NYL2); settings: single concentration of 1 μM; read-out: percent inhibition of ZAK/MLTK
Protocol: as §1

c-Kit = c-Kit (Homo sapiens, UniProt P10721); settings: single concentration of 1 μM; read-out: percent inhibition of c-Kit
Protocol: as §1

inhibition at 1 µM (ACK1): ≥ 70%
inhibition at 1 µM (BLK): ≥ 70%
inhibition at 1 µM (EPHA4): ≥ 70%
inhibition at 1 µM (EPHB4): ≥ 70%
inhibition at 1 µM (ERBB2/HER2): ≥ 70%
inhibition at 1 µM (ERBB4/HER4): ≥ 70%
inhibition at 1 µM (FGFR2): ≥ 70%
inhibition at 1 µM (FGR): ≥ 70%
inhibition at 1 µM (FYN): ≥ 70%
inhibition at 1 µM (GCK/MAP4K2): ≥ 70%
inhibition at 1 µM (KDR/VEGFR2): ≥ 70%
inhibition at 1 µM (LCK): ≥ 70%
inhibition at 1 µM (MYLK3): ≥ 70%
inhibition at 1 µM (P38a/MAPK14): ≥ 70%
inhibition at 1 µM (PDGFRb): ≥ 70%
inhibition at 1 µM (RET): ≥ 70%
inhibition at 1 µM (RIPK2): ≥ 70%
inhibition at 1 µM (TAOK3/JIK): ≥ 70%
inhibition at 1 µM (TLK1): ≥ 70%
inhibition at 1 µM (YES/YES1): ≥ 70%
inhibition at 1 µM (YSK4/MAP3K19): ≥ 70%
inhibition at 1 µM (ZAK/MLTK): ≥ 70%
inhibition at 1 µM (c-Kit): ≥ 70%
Structure (SMILES): Cc1ccc(Nc2ncc3cc(-c4cc(NC(=O)c5cccc(C(F)(F)F)c5)ccc4C)ncc3n2)cn1 [Compound No. 4, N-(4-methyl-3-(2-((6-methylpyridin-3-yl)amino)pyrido[3,4-d]pyrimidin-6-yl)phenyl)-3-(trifluoromethyl)benzamide]
